Data from patent publication US20240025849A1 (MAX DELBRÜCK-CENTRUM FÜR MOLEKULARE MEDIZIN IN DER …, priority 2020, published 2024).
Like-named read-outs stand apart in the source and are kept apart here.

System: primary cultured neonatal microglia
Experiment: LPS induced NO release, Griess assay, laboratory scaled setup;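 as to active: compounds at or above the IC50 cutoff were called inactive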
Assay type: cell-based, mouse
Details: for IC50: Mus musculus, Microglia
Experimental: Primary cultured neonatal microglia. For preparation of cultured neonatal microglia, P0-P3 mice were used. 10 brains were extracted, meninges and cerebellum were removed and put on ice with Hank's balanced salt solution (HBSS). The dissected brains were washed 3 times before adding 400 μL trypsin (0.1 mg/L) and DNAse (5 μg/L) in phosphate buffered saline (PBS). After 2 min of incubation with this solution, the reaction was blocked by adding plain medium. After removal of the medium, 1 mg DNAse was added and the cells were mechanically dissociated, with a Pasteur pipette followed by a glass pipette. The cells were centrifuged for 10 min at 129 g at 4° C. The supernatant was discarded. The pellet was resuspended in plain medium and plated (2.5 brains/flask) in Poly-L-Lysine coated flasks. The cells were washed after 2 days with PBS and incubated for another 7 days in plain medium. Afterwards the medium was replaced by plain medium with 33% L929 conditioned medium. After 2 days, cells were harvested by shaking them for 30 min at 150 rpm. The supernatant was centrifuged for 10 min at 129 g at 4° C. The cells were plated into a 96 well plate (100 000 cells/well, 200 μL medium per well). This procedure could be repeated 2 times with a 2 day interval.
Griess assay. Cells were seeded according to the protocols described above, after compounds and stimuli were added, 100 μl of supernatant was transferred into a new 96 well plate and 100 μl freshly mixed Griess reagent were added. Griess reagent was composed of reagent A (100 mg Naphthylethylene in 50 ml aqua dest.) and reagent B (1 g Sulfanilamide, […] H3PO4 (85%) in 44 mL aqua dest.) mixed 1:1. The solution was carefully mixed and the absorbance was determined in a microplate reader at a wavelength of 550 nm.
Dissolved sodium nitrite in plain medium served as a standard. Total amount of nitrite was calculated by a linear regression of the standard curve.
The activity of the compounds listed in column 1 of Table 1 as inhibitors of NO production was compared in murine primary cultured neonatal microglia as described above.

[1] = inhibitors of NO production, murine primary cultured neonatal microglia, read-out: IC50
[2] = inhibitors of NO production, murine primary cultured neonatal microglia, read-out: activity class (IC50)
[3] = inhibitors of NO production, murine primary cultured neonatal microglia

| Compound | IC50 [1] [µM] | IC50 [2] [µM] | active [3] | inhibitory effect in the NO release assay (FIG. 9) | IC50 (0.002 to 20 μM, FIG. 9, read-out: IC50, LPS induced NO production (stereoisomers)) [µM] |
| --- | --- | --- | --- | --- | --- |
| COc1ccc(NC(=O)[C@@H](NC(=O)[C@@H]2CCCN2C(=O)CCC2CCCC2)c2ccc(OC)cc2)cc1 [Compound 5, (S)-1-(3-cyclopentylpropanoyl)-N—((S)-1-(4-methoxyphenyl)-2-((4-methoxyphenyl)amino)-2-oxoethyl)pyrrolidine-2-carboxamide] | 0.0167 | < 0.05 | YES | – | – |
| COc1ccc(NC(=O)[C@@H](NC(=O)[C@@H]2CCCN2C(=O)CCC2CCCCC2)c2ccc(OC)cc2)cc1 [Compound 6, (S)-1-(3-cyclohexylpropanoyl)-N—((S)-1-(4-methoxyphenyl)-2-((4-methoxyphenyl)amino)-2-oxoethyl)pyrrolidine-2-carboxamide] | 0.0204 | < 0.05 | YES | – | – |
| COc1ccc(NC(=O)[C@@H](NC(=O)[C@@H]2CCCN2C(=O)CCCC2CCCCC2)c2ccc(OC)cc2)cc1 [Compound 7] | 0.0449 | < 0.05 | YES | – | – |
| COc1ccc(NC(=O)[C@@H](NC(=O)[C@@H]2CCCN2C(=O)CCC2CCCCC2)c2ccc(OCCOCCOCCOCCOCCOCCNC(=O)CCCC[C@@H]3SC[C@@H]4NC(=O)N[C@@H]43)cc2)cc1 [Compound 8, (S)-1-(3-cyclohexylpropanoyl)-N—((S)-2-((4-methoxyphenyl)amino)-2-oxo-1-(4-((19-oxo-23-((3aS,4S,6aR)-2-oxohexahydro-1H-thieno[3,4-d]imidazol-4-yl)-3,6,9,12,15-pentaoxa-18-azatricosyl)oxy)phenyl)ethyl)pyrrolidine-2-carboxamide] | 0.00837 | < 0.05 | YES | – | – |
| COc1ccc(NC(=O)[C@@H](NC(=O)[C@@H]2CCCN2C(=O)CCc2ccc(F)cc2)c2ccc(OC)cc2)cc1 [Compound 9, (S)-1-(3-(4-fluorophenyl)propanoyl)-N—((S)-1-(4-methoxyphenyl)-2-((4-methoxyphenyl)amino)-2-oxoethyl)pyrrolidine-2-carboxamide] | 0.0548 | < 0.1 | YES | – | – |
| COc1ccc([C@H](NC(=O)[C@@H]2CCCN2C(=O)OCc2ccccc2)C(=O)Nc2cc3n(n2)CCCC3)cc1 [Compound 10, benzyl(S)-2-(((S)-1-(4-methoxyphenyl)-2-oxo-2-((4,5,6,7-tetrahydropyrazolo[1,5-a]pyridin-2-yl)amino)ethyl)carbamoyl)pyrrolidine-1-carboxylate] | 0.0655 | < 0.1 | YES | – | – |
| COc1ccc(NC(=O)[C@@H](NC(=O)[C@@H]2CCCN2C(=O)COc2ccccc2)c2ccc(OC)cc2)cc1 [Compound 11, (S)—N—((S)-1-(4-methoxyphenyl)-2-((4-methoxyphenyl)amino)-2-oxoethyl)-1-(2-phenoxyacetyl)pyrrolidine-2-carboxamide] | 0.0717 | < 0.1 | YES | – | – |
| COc1ccc(NC(=O)[C@@H](NC(=O)[C@@H]2CCCN2C(=O)Cc2ccccc2)c2ccc(OC)cc2)cc1 [Compound 12, (S)—N—((S)-1-(4-methoxyphenyl)-2-((4-methoxyphenyl)amino)-2-oxoethyl)-1-(2-phenylacetyl)pyrrolidine-2-carboxamide] | 0.0996 | < 0.1 | YES | – | – |
| COc1ccc(NC(=O)[C@@H](NC(=O)[C@@H]2CCCN2C(=O)CCc2ccccc2)c2ccc(OC)cc2)cc1 [Compound 13] | 0.151 | < 0.2 | YES | – | – |
| COc1ccc(NC(=O)[C@@H](NC(=O)[C@@H]2CCCN2C(=O)CCc2ccoc2)c2ccc(OC)cc2)cc1 [Compound 14, (S)-1-(3-(furan-3-yl)propanoyl)-N—((S)-1-(4-methoxyphenyl)-2-((4-methoxyphenyl)amino)-2-oxoethyl)pyrrolidine-2-carboxamide] | 0.147 | < 0.2 | YES | – | – |
| COc1ccc(NC(=O)[C@@H](NC(=O)[C@@H]2CCCN2C(=O)CCC2CCOCC2)c2ccc(OC)cc2)cc1 [Compound 15, (S)—N—((S)-1-(4-methoxyphenyl)-2-((4-methoxyphenyl)amino)-2-oxoethyl)-1-(3-(tetrahydro-2H-pyran-4-yl)propanoyl)pyrrolidine-2-carboxamide] | 0.117 | < 0.2 | YES | – | – |
| COc1ccc(NC(=O)[C@@H](NC(=O)[C@@H]2CCCN2C(=O)CCc2cccs2)c2ccc(OC)cc2)cc1 [Compound 16, (S)—N—((S)-1-(4-methoxyphenyl)-2-((4-methoxyphenyl)amino)-2-oxoethyl)-1-(3-(thiophen-2-yl)propanoyl)pyrrolidine-2-carboxamide] | 0.122 | < 0.2 | YES | – | – |
| COc1ccc(NC(=O)[C@@H](NC(=O)[C@@H]2CCCN2C(=O)OCc2ccccc2)c2ccccc2)cc1 [Compound 17, benzyl (S)-2-(((S)-2-((4-methoxyphenyl)amino)-2-oxo-1-phenylethyl)carbamoyl)pyrrolidine-1-carboxylate] | 0.122 | < 0.2 | YES | – | – |
| COc1ccc(NC(=O)[C@@H](NC(=O)[C@@H]2CCCN2C(=O)OCc2ccccc2)c2ccc(OC)cc2)cc1 [Compound 18, (S)-benzyl-2-((S)—(4-methoxyphenylcarbamoyl)(4-methoxyphenyl)methylcarbamoyl)pyrrolidine-1-carboxylate] | 0.107 | < 0.2 | YES | shows an inhibitory effect | 0.1 |
| COc1ccc(NC(=O)[C@@H](NC(=O)[C@@H]2CCCN2C(=O)CC2CCCCC2)c2ccc(OC)cc2)cc1 [Compound 19, (S)-1-(2-cyclohexylacetyl)-N—((S)-1-(4-methoxyphenyl)-2-((4-methoxyphenyl)amino)-2-oxoethyl)pyrrolidine-2-carboxamide] | 0.208 | < 1 | YES | – | – |
| COc1ccc(NC(=O)[C@@H](NC(=O)[C@@H]2CCCN2C(=O)CCC(C)C)c2ccc(OC)cc2)cc1 [Compound 20, (S)—N—((S)-1-(4-methoxyphenyl)-2-((4-methoxyphenyl)amino)-2-oxoethyl)-1-(4-methylpentanoyl)pyrrolidine-2-carboxamide] | 0.203 | < 1 | YES | – | – |
| COc1ccc(NC(=O)[C@@H](NC(=O)[C@@H]2CCCN2C(=O)CCc2cn(C)c3ccccc23)c2ccc(OC)cc2)cc1 [Compound 21, (S)—N—((S)-1-(4-methoxyphenyl)-2-((4-methoxyphenyl)amino)-2-oxoethyl)-1-(3-(1-methyl-1H-indol-3-yl)propanoyl)pyrrolidine-2-carboxamide] | 0.259 | < 1 | YES | – | – |
| COc1ccc([C@H](NC(=O)[C@@H]2CCCN2C(=O)OCc2ccccc2)C(=O)Nc2ccc3c(c2)CCO3)cc1 [Compound 22, benzyl-(S)-2-(((S)-2-((2,3-dihydrobenzofuran-5-yl)amino)-1-(4-methoxyphenyl)-2-oxoethyl)carbamoyl)pyrrolidine-1-carboxylate] | 0.231 | < 1 | YES | – | – |
| COc1ccc(NC(=O)[C@@H](NC(=O)[C@@H]2CCCN2C(=O)C2CCCCC2)c2ccc(OC)cc2)cc1 [Compound 23, (S)-1-(cyclohexanecarbonyl)-N—((S)-1-(4-methoxyphenyl)-2-((4-methoxyphenyl)amino)-2-oxoethyl)pyrrolidine-2-carboxamide] | 1.08 | < 10 | YES | – | – |
